Assay [1] deals with GCGR (Homo sapiens, UniProt P47871). In words: GCGR activation CRE-Luc reporter assay in vitro. The assay is classed as cell-based. (In general: A reporter such as luciferase makes a cellular process visible.)
In assay [2] the target is human serum albumin (human, UniProt P02768 25-609). Nature of the assay: ITC. In general terms: ITC needs no label: the signal is the heat of the interaction.

Chain of GCGR (P47871 26-477): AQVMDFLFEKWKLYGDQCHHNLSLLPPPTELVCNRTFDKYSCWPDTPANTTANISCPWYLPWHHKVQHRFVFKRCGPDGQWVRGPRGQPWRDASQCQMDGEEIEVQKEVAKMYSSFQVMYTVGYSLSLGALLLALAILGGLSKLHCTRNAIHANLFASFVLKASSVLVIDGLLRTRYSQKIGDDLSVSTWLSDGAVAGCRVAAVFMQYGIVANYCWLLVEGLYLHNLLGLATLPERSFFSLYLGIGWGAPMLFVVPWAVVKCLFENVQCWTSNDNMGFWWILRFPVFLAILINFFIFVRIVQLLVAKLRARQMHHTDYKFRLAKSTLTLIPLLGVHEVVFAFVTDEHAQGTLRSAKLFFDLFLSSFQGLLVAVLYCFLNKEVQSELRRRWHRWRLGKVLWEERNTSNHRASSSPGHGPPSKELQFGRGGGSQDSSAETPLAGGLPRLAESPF

As usually defined, the EC50 is the midpoint of the concentration-response curve. A lower EC50 goes with higher potency in that assay. In assay [1], `CCCCCCCCCCCCCCCC(=O)N[C@@H](CCC(=O)NCCCC[C@H](NC(=O)[C@H](C)NC(=O)[C@H](C)NC(=O)[C@H](CCC(N)=O)NC(=O)CNC(=O)[C@H](CCC(=O)O)NC(=O)[C@H](CC(C)C)NC(=O)[C@H](Cc1ccc(O)cc1)NC(=O)[C@H](CO)NC(=O)[C@H](CO)NC(=O)[C@@H](NC(=O)[C@H](CC(=O)O)NC(=O)[C@H](CO)NC(=O)[C@@H](NC(=O)[C@H](Cc1ccccc1)NC(=O)[C@@H](NC(=O)CNC(=O)[C@H](CCC(=O)O)NC(=O)[C@H](C)NC(=O)[C@@H](N)Cc1cnc[nH]1)[C@@H](C)O)[C@@H](C)O)C(C)C)C(=O)N[C@@H](CCC(=O)O)C(=O)N[C@@H](Cc1ccccc1)C(=O)N[C@H](C(=O)N[C@@H](C)C(=O)N[C@@H](Cc1c[nH]c2ccccc12)C(=O)N[C@@H](CC(C)C)C(=O)N[C@H](C(=O)N[C@@H](CCCNC(=N)N)C(=O)NCC(=O)N[C@@H](CCCNC(=N)N)C(=O)NCC(=O)O)C(C)C)[C@@H](C)CC)C(=O)O` [Liraglutide, liraglutide] displayed an EC50 of more than 1 µM. As a reminder, the Kd is the concentration at which binding is half-saturated. Read a high Kd as weaker binding. With GGSGSG [6-amino acid linker GGSGSG], in assay [2], binding was characterised by a dissociation constant (Kd) of 805 µM.

The record behind these values is article PMC10935026 (Acta Pharmaceutica Sinica. B, 2023).
